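Five compound concentrations were applied to cells in 96-well plates for 48 hours; endpoints were derived by simple linear interpolation of the resulting dose-response curve. TGI is the concentration that stops growth completely.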
What was measured:
Assay in all cases: NCI-60 cell line screen, 48 h
HCT-116 colon = tested on: HCT-116 colon
MDA-MB-231 breast = tested on: MDA-MB-231 breast
SR leukemia = tested on: SR leukemia
HOP-92 NSCLC = tested on: HOP-92 NSCLC
MALME-3M melanoma = tested on: MALME-3M melanoma
K-562 leukemia = tested on: K-562 leukemia
SK-MEL-28 melanoma = tested on: SK-MEL-28 melanoma
SN12C renal = tested on: SN12C renal
EKVX NSCLC = tested on: EKVX NSCLC
LOX IMVI melanoma = tested on: LOX IMVI melanoma
HT29 colon = tested on: HT29 colon
U251 CNS = tested on: U251 CNS
MCF7 breast = tested on: MCF7 breast
SNB-75 CNS = tested on: SNB-75 CNS
CAKI-1 renal = tested on: CAKI-1 renal
DU-145 prostate = tested on: DU-145 prostate
NCI-H226 lung = tested on: NCI-H226 lung
UACC-257 melanoma = tested on: UACC-257 melanoma
MOLT-4 leukemia = tested on: MOLT-4 leukemia
COLO 205 colon = tested on: COLO 205 colon
RPMI-8226 leukemia = tested on: RPMI-8226 leukemia
RXF 393 renal = tested on: RXF 393 renal
HS 578T breast = tested on: HS 578T breast
NCI-H23 lung = tested on: NCI-H23 lung
BT-549 breast = tested on: BT-549 breast
SK-MEL-2 melanoma = tested on: SK-MEL-2 melanoma
ACHN renal = tested on: ACHN renal
NCI-H460 lung = tested on: NCI-H460 lung
UACC-62 melanoma = tested on: UACC-62 melanoma
A549 NSCLC = tested on: A549 NSCLC
OVCAR-3 ovarian = tested on: OVCAR-3 ovarian
CCRF-CEM leukemia = tested on: CCRF-CEM leukemia
SK-MEL-5 melanoma = tested on: SK-MEL-5 melanoma
MDA-MB-435 = tested on: MDA-MB-435
HCT-15 colon = tested on: HCT-15 colon
OVCAR-8 ovarian = tested on: OVCAR-8 ovarian
OVCAR-5 ovarian = tested on: OVCAR-5 ovarian
A498 renal = tested on: A498 renal
SNB-19 CNS = tested on: SNB-19 CNS
M14 melanoma = tested on: M14 melanoma
786-0 renal = tested on: 786-0 renal
HCC-2998 colon = tested on: HCC-2998 colon
NCI/ADR-RES ovarian = tested on: NCI/ADR-RES ovarian
T-47D breast = tested on: T-47D breast
PC-3 prostate = tested on: PC-3 prostate
MDA-N = tested on: MDA-N
OVCAR-4 ovarian = tested on: OVCAR-4 ovarian
KM12 colon = tested on: KM12 colon
SF-539 CNS = tested on: SF-539 CNS
HOP-62 NSCLC = tested on: HOP-62 NSCLC
SW-620 colon = tested on: SW-620 colon
SK-OV-3 ovarian = tested on: SK-OV-3 ovarian
HL-60(TB) leukemia = tested on: HL-60(TB) leukemia
IGROV1 ovarian = tested on: IGROV1 ovarian
NCI-H522 lung = tested on: NCI-H522 lung
SF-268 CNS = tested on: SF-268 CNS
TK-10 renal = tested on: TK-10 renal
SF-295 CNS = tested on: SF-295 CNS
UO-31 renal = tested on: UO-31 renal

Measured: TGI

COC(=O)[C@H](CNC(=O)/C=C/c1ccc(OC(C)=O)c(OC(C)=O)c1)NC(=O)/C=C/c1ccc(OC(C)=O)c(OC(C)=O)c1
> 100 µM: HCT-116 colon | MDA-MB-231 breast | SR leukemia | HOP-92 NSCLC | MALME-3M melanoma | K-562 leukemia | SK-MEL-28 melanoma | SN12C renal | EKVX NSCLC | LOX IMVI melanoma | HT29 colon | U251 CNS | MCF7 breast | SNB-75 CNS | CAKI-1 renal | DU-145 prostate | NCI-H226 lung | UACC-257 melanoma | MOLT-4 leukemia | COLO 205 colon | RPMI-8226 leukemia | RXF 393 renal | HS 578T breast | NCI-H23 lung | BT-549 breast | SK-MEL-2 melanoma | ACHN renal | NCI-H460 lung | UACC-62 melanoma | A549 NSCLC | OVCAR-3 ovarian | CCRF-CEM leukemia | SK-MEL-5 melanoma | MDA-MB-435 | HCT-15 colon | OVCAR-8 ovarian | OVCAR-5 ovarian | A498 renal | SNB-19 CNS | M14 melanoma | 786-0 renal | HCC-2998 colon | NCI/ADR-RES ovarian | T-47D breast | PC-3 prostate | MDA-N | OVCAR-4 ovarian | KM12 colon | SF-539 CNS | HOP-62 NSCLC | SW-620 colon | SK-OV-3 ovarian | HL-60(TB) leukemia | IGROV1 ovarian

CCOC(=O)C1(CC(=O)O)CCCC1=O (configuration not stated)
> 100 µM: HCT-116 colon | MDA-MB-231 breast | SR leukemia | HOP-92 NSCLC | MALME-3M melanoma | K-562 leukemia | NCI-H522 lung | SK-MEL-28 melanoma | SN12C renal | EKVX NSCLC | LOX IMVI melanoma | HT29 colon | U251 CNS | MCF7 breast | SNB-75 CNS | CAKI-1 renal | DU-145 prostate | NCI-H226 lung | UACC-257 melanoma | MOLT-4 leukemia | COLO 205 colon | RPMI-8226 leukemia | RXF 393 renal | HS 578T breast | NCI-H23 lung | BT-549 breast | SF-268 CNS | SK-MEL-2 melanoma | ACHN renal | NCI-H460 lung | UACC-62 melanoma | TK-10 renal | A549 NSCLC | OVCAR-3 ovarian | CCRF-CEM leukemia | SK-MEL-5 melanoma | MDA-MB-435 | SF-295 CNS | HCT-15 colon | OVCAR-8 ovarian | OVCAR-5 ovarian | A498 renal | SNB-19 CNS | M14 melanoma | UO-31 renal | 786-0 renal | NCI/ADR-RES ovarian | T-47D breast | PC-3 prostate | MDA-N | OVCAR-4 ovarian | KM12 colon | SF-539 CNS | HOP-62 NSCLC | SW-620 colon | SK-OV-3 ovarian | HL-60(TB) leukemia | IGROV1 ovarian

Reference: PubChem BioAssay (NCI)
